Measurements published in ChEMBL document CHEMBL5252554, “Stereodivergent Hydroxylation of Berkeleylactones by Penicillium turbatum” (J Nat Prod, 2023).
Converted amounts (≈) assume the structure as drawn.

Tests used:
Staphylococcus aureus = experiment: Antibacterial activity against Staphylococcus aureus ATCC 25923 assessed as bacterial growth inhibition measured after 48 hrs by resazurin dye based assay; assay type: functional
Bacillus subtilis = experiment: Antibacterial activity against Bacillus subtilis ATCC 6633 assessed as bacterial growth inhibition measured after 48 hrs by resazurin dye based assay; assay type: functional
[1] = Antiproliferative activity against mouse NS-1 cells assessed as cell growth inhibition measured after 72 hrs by resazurin dye based assay; assay type: functional; conditions: for IC50: NS1, 72 h
Giardia intestinalis = experiment: Antiprotozoal activity against Giardia duodenalis 713 assessed as protozoal growth inhibition measured after 96 hrs under anaerobic conditions; assay type: functional
Escherichia coli = experiment: Antibacterial activity against Escherichia coli ATCC 25922 assessed as bacterial growth inhibition measured after 48 hrs by resazurin dye based assay; assay type: functional, organism-based
Saccharomyces cerevisiae = experiment: Antifungal activity against Saccharomyces cerevisiae ATCC 9763 assessed as fungal growth inhibition measured after 48 hrs by bromocresol green staining based method; assay type: functional

Molecule	MIC (Staphylococcus aureus)	MIC (Bacillus subtilis)	IC50 [1]	further results
COC(=O)CCC(=O)O[C@H]1CCCCCCCCC[C@@H](C)OC(=O)/C=C/[C@H]1O	25 µg/mL	12.5 µg/mL	5.9 µM	–
C[C@@H]1CCCCCCCCC[C@H](OC(=O)CCC(=O)O)C(=O)/C=C/C(=O)O1	0.4 µg/mL	–	3.1 µM	–
C[C@@H]1C[C@@H](O)CCCCCCC[C@H](O)[C@H](O)/C=C/C(=O)O1	50 µg/mL	–	32 µM	LD99 (Giardia intestinalis): 50 µg/mL
GENTAMICIN	0.8 µM	0.8 µM	–	MIC (Escherichia coli): 1.7 µM
CO[C@@]12[C@H](COC(N)=O)C3=C(C(=O)C(C)=C(N)C3=O)N1C[C@@H]1N[C@@H]12 [MITOMYCIN]	–	–	–	MIC ([1]; time 72 hrs): 0.93 µM (≈ 0.311 µg/mL)
C[C@@H]1[C@H](O)[C@@H](C)/C=C/C=C/C=C/C=C/C=C/C=C/C=C/[C@H](O[C@@H]2O[C@H](C)[C@@H](O)[C@H](N)[C@@H]2O)C[C@@H]2O[C@](O)(C[C@@H](O)C[C@@H](O)[C@H](O)CC[C@@H](O)C[C@@H](O)CC(=O)O[C@H]1C)C[C@H](O)[C@H]2C(=O)O [AMPHOTERICIN B]	–	–	–	MIC (Saccharomyces cerevisiae): 0.3 µM (≈ 0.277 µg/mL)
